{"source": "patent US20090275648A1", "about": "“MACROCYCLIC GHRELIN RECEPTOR ANTAGONISTS AND INVERSE AGONISTS AND METHODS OF USING THE SAME” (priority 2005, published 2009)", "key": {"[1]": {"molecular_target": "T1, human ghrelin receptor (hGHS-R1a) (Homo sapiens, UniProt Q92847)", "T1 construct": "purchased PerkinElmer BioSignal #RBHGHSM, lot#1887; host or cells: HEK-293 cells, stably transfected; membranes", "T1 sequence (Q92847 whole entry)": "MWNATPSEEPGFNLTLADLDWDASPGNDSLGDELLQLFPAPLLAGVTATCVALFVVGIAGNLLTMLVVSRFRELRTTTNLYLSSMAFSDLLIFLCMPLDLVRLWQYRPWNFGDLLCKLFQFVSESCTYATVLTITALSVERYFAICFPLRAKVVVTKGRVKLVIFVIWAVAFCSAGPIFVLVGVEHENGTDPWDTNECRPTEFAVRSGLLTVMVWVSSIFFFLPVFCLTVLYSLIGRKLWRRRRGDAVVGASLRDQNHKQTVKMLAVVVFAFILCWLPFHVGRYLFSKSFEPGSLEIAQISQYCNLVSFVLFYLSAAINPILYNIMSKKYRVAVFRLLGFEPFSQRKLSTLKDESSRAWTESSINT", "assay": "Competitive radioligand binding assay (ghrelin receptor), [125I]-ghrelin, GHS-R/HEK 293 membranes", "conditions": "competition with [125I]-ghrelin", "procedure": "The competitive binding assay at the human growth hormone secretagogue receptor (HGHS-R1a) was carried out analogously to assays described in the literature. (Bednarek M A et al. Structure-function studies on the new growth hormone-releasing peptide ghrelin: minimal sequence of ghrelin necessary for activation of growth hormone secretagogue receptor 1a; J. Med. Chem. 2000, 43, 4370-4376; Palucki, B. L. et al. Spiro(indoline-3,4′-piperidine) growth hormone secretagogues as ghrelin mimetics; Bioorg. Med. Chem. Lett. […], 11, 1955-1957).\nMembranes (GHS-R/HEK 293) were prepared from HEK-293 cells stably transfected with the human ghrelin receptor (hGHS-R1a). These membranes were provided by PerkinElmer BioSignal (#RBHGHSM, lot#1887) and utilized at a quantity of 0.71 μg/assay point. • 1. [^125]-Ghrelin (PerkinElmer, #NEX-388); final concentration: 0.0070-0.0085 nM • 2. […] Multiscreen Harvest plates-GF/C (Millipore, #MAHFC1H60) • 4. Deep-well polypropylene titer plate (Beckman Coulter, #267006) • 5. TopSeal-A (PerkinElmer, #6005185) • 6. Bottom seal (Millipore, #MATAH0P00) • 7. MicroScint-0 (PerkinElmer, #6013611) • 8. Binding Buffer: 25 mM Hepes (pH 7.4), 1 mM CaCl2, 5 mM MgCl2, 2.5 mM EDTA, 0.4% BSA\nCompetition experiments were performed in a 300 μl filtration assay format. • 1. 220 μL of membranes diluted in binding buffer • 2. 40 μL of compound diluted in binding buffer • 3.\nCompounds were provided frozen on dry ice at a stock concentration of 10 mM diluted in 100% DMSO and stored at −80° C. until the day of testing. On the test day, compounds were allowed to thaw at rt overnight and then diluted in assay buffer according to the desired test concentrations. Under these conditions, the maximal final DMSO concentration in the assay was 0.1%.\nIn deep-well plates, 220 μL of diluted cell membranes (final concentration: 0.71 μg/well) were combined with 40 μL of either binding buffer (total binding, N=5), 1 μM ghrelin (non-specific binding, N=3) or the appropriate concentration of test compound N=2 for each test concentration). […] Plates were sealed with TopSeal-A, vortexed gently and incubated at rt for 30 min. The reaction was arrested by filtering samples through Multiscreen Harvest plates (pre-soaked in 0.5% polyethyleneimine) using a Tomtec Harvester, washed 9 times with 500 μL of cold 50 mM Tris-HCl (pH 7.4, 4° C.), and then plates were air-dried in a fumehood for 30 min. A bottom seal was applied to the plates prior to the addition of 25 μL of MicroScint-0 to each well. Plates were than sealed with TopSeal-A and counted for 30 sec per well on a TopCount Microplate Scintillation and Luminescence Counter (PerkinElmer) using a count delay of 60 sec. Results were expressed as counts per minute (cpm).\nData were analyzed by GraphPad Prism (GraphPad Software, San Diego, Calif.) using a variable slope non-linear regression analysis.\nDmax values were calculated using the following formula: […]\nwhere total and non-specific binding represent the cpm obtained in the absence or presence of 1 μM ghrelin, respectively."}, "ghrelin receptor [2]": {"molecular_target": "T2, ghrelin receptor (Homo sapiens, UniProt Q92847)", "T2 sequence (Q92847 whole entry)": "as above", "assay": "Inverse agonist assay, Example 4", "format": "cell-based", "conditions": "inverse agonist activity", "text": "The inverse agonist activity at the ghrelin receptor for compounds of the invention can be determined using the methods described in Intl. Pat. Appl. Publ. No. WO 2004/056869 and Holst, B.; Cygankiewicz, A.; Halkjaer, T.; Ankersen, A.; Schwartz, T. W. High constitutive signaling of the ghrelin receptor—identification of a potent inverse agonist. Mol. Endocrinol. 2003, 17, 2201-2210."}, "ghrelin receptor [3]": {"molecular_target": "T2, ghrelin receptor", "assay": "Aequorin functional assay (ghrelin receptor), Example 3", "format": "cell-based", "design": "host or cells: CHO-K1 cells co-expressing Gα16 and mitochondrially targeted Aequorin", "conditions": "for IC50: antagonist testing vs ghrelin at EC80 (3.7 nM)", "text": "The functional activity of compounds of the invention found to bind to the GHS-R1a receptor can be determined using the method described below. (LePoul, E.; et al. Adaptation of aequorin functional assay to high throughput screening. J. Biomol. Screen. 2002, 7, 57-65; Bednarek, M. A.; et al. Structure-function studies on the new growth hormone-releasing peptide ghrelin: minimal sequence of ghrelin necessary for activation of growth hormone secretagogue receptor 1a. J. Med. Chem. 2000, 43, 4370-4376; Palucki, B. L.; et al. Spiro(indoline-3,4′-piperidine) growth hormone secretagogues as ghrelin mimetics. Bioorg. Med. Chem. Lett. 2001, 11, 1955-1957).\nMembranes were prepared using AequoScreen™ (EUROSCREEN, Belgium) cell lines expressing the human ghrelin receptor (cell line ES-410-A; receptor accession #60179). This cell line is constructed by transfection of the human ghrelin receptor into CHO-K1 cells co-expressing Gα16 and the mitochondrially targeted Aequorin (Ref #ES-WT-A5). • 1. Ghrelin (reference agonist; Bachem, #H-4864) • 2. Assay buffer: DMEM (Dulbecco's Modified Eagles Medium) containing 0.1% BSA (bovine serum albumin; pH 7.0. • 3. Coelenterazine (Molecular Probes, Leiden, The Netherlands)\nStock solutions of compounds (10 mM in 100% DMSO) were provided frozen on dry ice and stored at −20° C. prior to use. From the stock solution, mother solutions were made at a concentration of 500 μM 20-fold dilution in 26% DMSO. Assay plates were then prepared by appropriate dilution in DMEM medium containing 0.1% BSA. Under these conditions, the maximal final DMSO concentration in the assay was <0.6%.\nAequoScreen™ cells were collected from culture plates with Ca^2+ and Mg^2+-free phosphate buffered saline (PBS) supplemented with 5 mM EDTA, pelleted for 2 minutes at 1000×g, re-suspended in DMEM-Ham's F12 containing 0.1% BSA at a density of 5×10^6 cells/ml and incubated overnight at room temperature in the presence of 5 μM coelenterazine. After loading, cells were diluted with assay buffer to a concentration of 5×10^5 cells/ml.\nFor agonist testing, 50 μl of the cell suspension was mixed with 50 μl of the appropriate concentration of test compound or ghrelin (reference agonist) in 96-well plates (duplicate samples). Ghrelin (reference agonist) is tested at several concentrations concurrently with the test compounds in order to validate the experiment. The emission of light resulting from receptor activation in response to ghrelin or test compounds was recorded using the Hamamatsu FDSS 6000 reader (Hamamatsu Photonics K.K., Japan).\nFor antagonist testing, an approximate EC80 concentration of ghrelin (i.e. 3.7 nM; 100 μL) was injected onto the cell suspension containing the test compounds (duplicate samples) 15-30 minutes after the end of agonist testing and the consequent emission of light resulting from receptor activation was measured as described in the paragraph above.\nResults are expressed as Relative Light Units (RLU). […] For agonist testing, results for each concentration of test compound were expressed as percent activation relative to the signal induced by ghrelin at a concentration equal to the EC80 (i.e. 3.7 nM). EC50, Hill slope and % Emax values are reported.\nFor antagonist testing, results for each concentration of test compound were expressed as percent inhibition relative to the signal induced by ghrelin at a concentration equal to the EC80."}}}
{"smiles": "CCC(C)[C@@H]1NCCOc2ccccc2CCCNC(=O)[C@@H](Cc2ccccc2)NC(=O)[C@@H](CO)N(C)C1=O", "note": "(stereo in doubt) [Compound 152]", "values": [{"measurement": "Ki", "setting": "[1]", "value": "100 to 1000", "unit": "nM"}, {"measurement": "IC50", "setting": "ghrelin receptor [2]", "value": "> 10000", "unit": "nM"}, {"measurement": "receptor activation (agonist activity)", "setting": "ghrelin receptor [3]; agonist testing, in comparison to known ghrelin agonists", "value": "no receptor activation"}, {"measurement": "IC50", "setting": "ghrelin receptor [3]", "value": "100 to 1500", "unit": "nM"}]}
{"smiles": "CCC(C)[C@@H]1NCCOc2ccccc2CCCNC(=O)[C@@H](Cc2ccccc2)NC(=O)[C@@H](C)NC1=O", "note": "(stereo partly drawn) [Compound 2]", "values": [{"measurement": "Ki", "setting": "[1]", "value": "100 to 1000", "unit": "nM"}]}
{"smiles": "CCC(C)[C@@H]1NCCOc2ccccc2/C=C/CNC(=O)[C@H](Cc2ccccc2)NC(=O)[C@@H](C)NC1=O", "note": "(stereo partly drawn) [Compound 14]", "values": [{"measurement": "Ki", "setting": "[1]", "value": "100 to 1000", "unit": "nM"}]}
{"smiles": "CCC[C@@H]1NCCOc2ccccc2CCCNC(=O)[C@@H](Cc2ccccc2)NC(=O)[C@H](C)NC1=O", "note": "[Compound 59]", "values": [{"measurement": "Ki", "setting": "[1]", "value": "1000 to 10000", "unit": "nM"}]}
{"smiles": "CCC[C@@H]1NCCOc2ccccc2CCCNC(=O)[C@@H](Cc2ccccc2)NC(=O)[C@@H](C)NC1=O", "note": "[Compound 60]", "values": [{"measurement": "Ki", "setting": "[1]", "value": "100 to 1000", "unit": "nM"}]}
{"smiles": "CCC[C@@H]1NCCOc2ccccc2CCCNC(=O)[C@@H](Cc2ccccc2)NC(=O)[C@H](C)N(C)C1=O", "note": "[Compound 79]", "values": [{"measurement": "Ki", "setting": "[1]", "value": "100 to 1000", "unit": "nM"}]}
{"smiles": "CC(C)C[C@@H]1NCCOc2ccccc2CCCNC(=O)[C@H](Cc2ccccc2)NC(=O)[C@H](C)NC1=O", "note": "[Compound 93]", "values": [{"measurement": "Ki", "setting": "[1]", "value": "1000 to 10000", "unit": "nM"}]}
{"smiles": "CC(C)C[C@@H]1NCCOc2ccccc2CCCNC(=O)[C@H](Cc2ccccc2)NC(=O)[C@@H](C)NC1=O", "note": "[Compound 94]", "values": [{"measurement": "Ki", "setting": "[1]", "value": "1000 to 10000", "unit": "nM"}]}
{"smiles": "CCC(C)[C@@H]1NCCOc2ccccc2CCCNC(=O)[C@@H](Cc2ccccc2)NC(=O)[C@@H](CO)NC1=O", "note": "(stereo partly drawn) [Compound 151]", "values": [{"measurement": "Ki", "setting": "[1]", "value": "1000 to 10000", "unit": "nM"}]}
{"smiles": "CCC(C)[C@@H]1NCCOc2ccccc2CCCNC(=O)[C@@H](Cc2ccccc2)NC(=O)[C@@H](COC(C)(C)C)NC1=O", "note": "(stereo partly drawn) [Compound 215]", "values": [{"measurement": "Ki", "setting": "[1]", "value": "1000 to 10000", "unit": "nM"}]}
{"smiles": "CCC(C)[C@@H]1NCCOc2ccccc2CCCNC(=O)[C@@H](Cc2ccc(F)cc2)NC(=O)[C@@H](COCc2ccccc2)N(C)C1=O", "note": "(stereo partly drawn) [Compound 501]", "values": [{"measurement": "Ki", "setting": "[1]", "value": "100 to 1000", "unit": "nM"}]}
{"smiles": "CCC(C)[C@@H]1NCCOc2ccccc2CCCNC(=O)[C@@H](Cc2ccccc2)NC(=O)[C@H](C(C)O)N(C)C1=O", "note": "(stereo partly drawn) [Compound 503]", "values": [{"measurement": "Ki", "setting": "[1]", "value": "1 to 100", "unit": "nM"}, {"measurement": "IC50", "setting": "ghrelin receptor [2]", "value": "100 to 1000", "unit": "nM"}, {"measurement": "IC50", "setting": "ghrelin receptor [3]", "value": "1 to 100", "unit": "nM"}]}
{"smiles": "CCC(C)[C@@H]1NCCOc2ccccc2/C=C/CNC(=O)[C@@H](Cc2ccc(F)cc2)NC(=O)[C@H](C(C)O)N(C)C1=O", "note": "(stereo partly drawn) [Compound 504]", "values": [{"measurement": "Ki", "setting": "[1]", "value": "1 to 100", "unit": "nM"}, {"measurement": "IC50", "setting": "ghrelin receptor [2]", "value": "100 to 1000", "unit": "nM"}, {"measurement": "IC50", "setting": "ghrelin receptor [3]", "value": "1 to 100", "unit": "nM"}]}
{"smiles": "CC(O)[C@H]1C(=O)N[C@H](Cc2ccc(F)cc2)C(=O)NCCCc2ccccc2O[C@H](C)CN[C@@H](C2CC2)C(=O)N1C", "note": "(stereo partly drawn) [Compound 505]", "values": [{"measurement": "Ki", "setting": "[1]", "value": "100 to 1000", "unit": "nM"}, {"measurement": "IC50", "setting": "ghrelin receptor [2]", "value": "100 to 1000", "unit": "nM"}, {"measurement": "IC50", "setting": "ghrelin receptor [3]", "value": "100 to 1500", "unit": "nM"}]}
{"smiles": "CCC(C)[C@@H]1NCCOc2ccccc2CCCNC(=O)[C@@H](Cc2ccccc2)NC(=O)[C@H](CCO)N(C)C1=O", "note": "(stereo partly drawn) [Compound 506]", "values": [{"measurement": "Ki", "setting": "[1]", "value": "100 to 1000", "unit": "nM"}, {"measurement": "IC50", "setting": "ghrelin receptor [2]", "value": "> 10000", "unit": "nM"}, {"measurement": "IC50", "setting": "ghrelin receptor [3]", "value": "100 to 1500", "unit": "nM"}]}
{"smiles": "CCC(C)[C@@H]1NCCOc2ccccc2/C=C\\CNC(=O)[C@@H](Cc2ccc(F)cc2)NC(=O)[C@H](C(C)O)N(C)C1=O", "note": "(stereo partly drawn) [Compound 508]", "values": [{"measurement": "Ki", "setting": "[1]", "value": "1 to 100", "unit": "nM"}, {"measurement": "IC50", "setting": "ghrelin receptor [3]", "value": "100 to 1500", "unit": "nM"}]}
{"smiles": "CC[C@@H](C)[C@H]1NCCOc2ccccc2CCCNC(=O)[C@@H](Cc2ccccc2)NC(=O)[C@H]([C@H](C)O)N(C)C1=O", "note": "[Compound 509]", "values": [{"measurement": "Ki", "setting": "[1]", "value": "100 to 1000", "unit": "nM"}, {"measurement": "IC50", "setting": "ghrelin receptor [3]", "value": "> 1500", "unit": "nM"}]}
